# Assays:
# Format in all cases: functional
# [1] = tested on: Staphylococcus aureus; assay: Antibacterial activity against Staphylococcus aureus ATCC 29213 incubated for 18 hrs by serial two-fold dilution method
# [2] = tested on: Staphylococcus epidermidis; assay: Antibacterial activity against Staphylococcus epidermidis ATCC 12228 incubated for 18 hrs by serial two-fold dilution method
# [3] = tested on: Staphylococcus aureus; assay: Antibacterial activity against methicillin resistant Staphylococcus aureus ATCC 33592 incubated for 18 hrs by serial two-fold dilution method
Compound,MIC [1],MIC [2],MIC [3]
C/C(O)=C1\C(=O)[C@@H]2Cc3c([nH]c4ccccc34)[C@@H](c3cccc(F)c3)N2C1=O,8 µg/mL,–,–
C/C(O)=C1\C(=O)[C@@H]2Cc3c([nH]c4ccccc34)[C@@H](c3ccc(-c4ccc(F)cc4)cc3)N2C1=O,0.063 µg/mL,0.125 µg/mL,0.125 µg/mL
C/C(O)=C1\C(=O)[C@@H]2Cc3c([nH]c4ccccc34)[C@@H](c3ccc(F)cc3F)N2C1=O,8 µg/mL,–,–
C/C(O)=C1\C(=O)[C@@H]2Cc3c([nH]c4ccccc34)[C@@H](c3ccc(C)cc3)N2C1=O,4 µg/mL,–,–
COc1ccc([C@@H]2c3[nH]c4ccccc4c3C[C@H]3C(=O)/C(=C(\C)O)C(=O)N23)cc1,4 µg/mL,–,–
O=C(OC1=CC(=O)N2[C@H](c3ccc(-c4cc(F)cc(F)c4)cc3)c3[nH]c4ccccc4c3C[C@@H]12)c1ccccc1,> 4 µg/mL,> 4 µg/mL,> 4 µg/mL
C/C(O)=C1\C(=O)[C@@H]2Cc3c([nH]c4ccccc34)[C@H](c3cccc(F)c3)N2C1=O,32 µg/mL,–,–
C/C(O)=C1\C(=O)[C@@H]2Cc3c([nH]c4ccccc34)[C@@H](c3ccc(-c4ccccc4C)cc3)N2C1=O,0.125 µg/mL,0.5 µg/mL,0.25 µg/mL
C/C(O)=C1\C(=O)[C@@H]2Cc3c([nH]c4ccccc34)[C@@H](c3ccc4ccccc4c3)N2C1=O,8 µg/mL,–,–
C/C(O)=C1\C(=O)[C@@H]2Cc3c([nH]c4ccccc34)[C@@H](c3ccccn3)N2C1=O,64 µg/mL,–,–
C/C(O)=C1\C(=O)[C@@H]2Cc3c([nH]c4ccccc34)[C@@H](c3ccc(-c4cccc(F)c4)cc3)N2C1=O,0.125 µg/mL,0.25 µg/mL,0.25 µg/mL
CCC(=O)OC1=CC(=O)N2[C@H](c3ccc(-c4cc(F)cc(F)c4)cc3)c3[nH]c4ccccc4c3C[C@@H]12,> 4 µg/mL,> 4 µg/mL,> 4 µg/mL
C/C(O)=C1\C(=O)[C@@H]2Cc3c([nH]c4ccccc34)[C@H](c3ccc(C(F)(F)F)cc3)N2C1=O,16 µg/mL,–,–
C/C(O)=C1\C(=O)[C@@H]2Cc3c(n(S(=O)(=O)c4ccc(C)cc4)c4ccccc34)[C@@H](c3ccc(-c4ccc(C)cc4)cc3)N2C1=O,8 µg/mL,2 µg/mL,8 µg/mL
O=C(OC1=CC(=O)N2[C@H](c3ccc(-c4cc(F)cc(F)c4)cc3)c3[nH]c4ccccc4c3C[C@@H]12)c1ccc2ccccc2c1,4 µg/mL,> 4 µg/mL,2 µg/mL
C/C(O)=C1\C(=O)[C@@H]2Cc3c([nH]c4ccccc34)[C@@H](c3ccc(F)cc3)N2C1=O,4 µg/mL,–,–
C/C(O)=C1\C(=O)[C@@H]2Cc3c(n(S(=O)(=O)c4ccc(C)cc4)c4ccccc34)[C@@H](c3ccc(-c4ccc(F)cc4)cc3)N2C1=O,2 µg/mL,0.25 µg/mL,2 µg/mL
C/C(O)=C1\C(=O)[C@@H]2Cc3c([nH]c4ccccc34)[C@@H](c3ccc(-c4cccc(C(F)(F)F)c4)cc3)N2C1=O,0.5 µg/mL,0.063 µg/mL,0.5 µg/mL
C/C(N)=C1\C(=O)[C@@H]2Cc3c([nH]c4ccccc34)[C@@H](c3ccc(-c4ccc(OC(F)(F)F)cc4)cc3)N2C1=O,4 µg/mL,4 µg/mL,4 µg/mL
O=C1/C(=C(/O)c2ccc3ccccc3c2)C(=O)N2[C@H](c3ccc(-c4cc(F)cc(F)c4)cc3)c3[nH]c4ccccc4c3C[C@@H]12,4 µg/mL,2 µg/mL,2 µg/mL
C/C(O)=C1\C(=O)[C@@H]2Cc3c([nH]c4ccccc34)[C@@H](c3ccc(-c4ccc(C(F)(F)F)cc4)cc3)N2C1=O,0.063 µg/mL,0.063 µg/mL,0.25 µg/mL
C/C(O)=C1\C(=O)[C@@H]2Cc3c([nH]c4ccccc34)[C@@H](c3ccc(-c4cc(C(F)(F)F)cc(C(F)(F)F)c4)cc3)N2C1=O,1 µg/mL,1 µg/mL,1 µg/mL

Compound,MIC [1],MIC [2],MIC [3]
O=C(OC1=CC(=O)N2[C@H](c3ccc(-c4cc(F)cc(F)c4)cc3)c3[nH]c4ccccc4c3C[C@@H]12)c1ccc(F)cc1,> 4 µg/mL,> 4 µg/mL,> 4 µg/mL
C/C(O)=C1\C(=O)[C@@H]2Cc3c(n(C)c4ccccc34)[C@@H](c3ccc(-c4ccc(F)cc4)cc3)N2C1=O,0.25 µg/mL,0.063 µg/mL,0.5 µg/mL
CC[C@@H]1c2[nH]c3ccccc3c2C[C@H]2C(=O)/C(=C(\C)O)C(=O)N12,> 128 µg/mL,–,–
C/C(O)=C1\C(=O)[C@@H]2Cc3c([nH]c4ccccc34)[C@@H](c3ccccc3)N2C1=O,8 µg/mL,–,–
O=C1CC(=O)N2[C@H](c3ccc(-c4ccc(F)cc4)cc3)c3[nH]c4ccccc4c3C[C@@H]12,> 4 µg/mL,> 4 µg/mL,> 4 µg/mL
O=C(OC1=CC(=O)N2[C@H](c3ccc(-c4cc(F)cc(F)c4)cc3)c3[nH]c4ccccc4c3C[C@@H]12)c1cccs1,> 4 µg/mL,> 4 µg/mL,> 4 µg/mL
CC(=O)OC1=CC(=O)N2[C@H](c3ccc(-c4cc(F)cc(F)c4)cc3)c3[nH]c4ccccc4c3C[C@@H]12,> 4 µg/mL,> 4 µg/mL,> 4 µg/mL
Cc1ccc(C(=O)OC2=CC(=O)N3[C@H](c4ccc(-c5cc(F)cc(F)c5)cc4)c4[nH]c5ccccc5c4C[C@@H]23)cc1,> 4 µg/mL,> 4 µg/mL,> 4 µg/mL
C/C(O)=C1\C(=O)[C@@H]2Cc3c([nH]c4ccccc34)[C@H](c3ccccc3)N2C1=O,16 µg/mL,–,–
C/C(O)=C1\C(=O)[C@@H]2Cc3c([nH]c4ccccc34)[C@@H](C)N2C1=O,> 128 µg/mL,–,–
O=C1CC(=O)N2[C@H](c3ccc(-c4ccc(C(F)(F)F)cc4)cc3)c3[nH]c4ccccc4c3C[C@@H]12,> 4 µg/mL,4 µg/mL,> 4 µg/mL
C/C(O)=C1\C(=O)[C@@H]2Cc3c([nH]c4ccccc34)[C@@H](Cc3ccccc3)N2C1=O,32 µg/mL,–,–
COc1ccc([C@H]2c3[nH]c4ccccc4c3C[C@H]3C(=O)/C(=C(\C)O)C(=O)N23)cc1,8 µg/mL,–,–
C/C(N)=C1\C(=O)[C@@H]2Cc3c([nH]c4ccccc34)[C@@H](c3ccc(-c4ccccc4)cc3)N2C1=O,> 4 µg/mL,> 4 µg/mL,> 4 µg/mL
O=C1CC(=O)N2[C@H](c3ccc(-c4ccc(OC(F)(F)F)cc4)cc3)c3[nH]c4ccccc4c3C[C@@H]12,> 4 µg/mL,> 4 µg/mL,> 4 µg/mL
C/C(O)=C1\C(=O)[C@@H]2Cc3c([nH]c4ccccc34)[C@@H](c3ccc(-c4cc(F)c(F)c(F)c4)cc3)N2C1=O,0.5 µg/mL,1 µg/mL,1 µg/mL
C/C(O)=C1\C(=O)[C@@H]2Cc3c([nH]c4ccccc34)[C@@H](c3ccc(C(F)(F)F)cc3)N2C1=O,2 µg/mL,–,–
Cc1ccc(/C(O)=C2\C(=O)[C@@H]3Cc4c([nH]c5ccccc45)[C@@H](c4ccc(-c5cc(F)cc(F)c5)cc4)N3C2=O)cc1,0.5 µg/mL,0.25 µg/mL,0.5 µg/mL
C/C(O)=C1\C(=O)[C@@H]2Cc3c([nH]c4ccccc34)[C@@H](c3ccc(C(C)(C)C)cc3)N2C1=O,4 µg/mL,–,–
C/C(O)=C1\C(=O)[C@@H]2Cc3c([nH]c4ccccc34)CN2C1=O,128 µg/mL,–,–
COC(=O)[C@@H]1Cc2c([nH]c3ccccc23)[C@@H](C)N1,> 128 µg/mL,–,–

# Reference: ChEMBL document CHEMBL5608208, “Design, synthesis of griseofamine A derivatives and development of potent antibacterial agents against MRSA” (Eur J Med Chem, 2024)
